Experimental data from patent US10028508B2, “Use of active compound compositions” (BAYER CROPSCIENCE AKTIENGESELLSCHAFT, priority 2014, dated 2018).
Read-outs that look alike come from different tables or passages of the source.

Test system: Anopheles funestus metabolic-resistant strain FUMOZ-R
Test: Metabolic-Resistant Anopheles Test (mortality on treated tile, wood, concrete)
Type: in vivo
Details: for mortality at 12.5 mg/m2: Deltamethrin 12.5 mg/m2, read-out: Mortality Effect %; for mortality at 25 mg/m2: Deltamethrin 25 mg/m2, read-out: Mortality Effect %
Procedure: To produce a suitable preparation of active compound combination the active compounds deltamethrin and clothanidin were dissolved in acetone (for the control group only one active compound was dissolved in acetone). The active compound combination preparation (and the active compound preparations) were pipetted onto a glazed tile, wood and concrete and, after drying, adult mosquitoes of the species Anopheles funestus metabolic-resistant strain FUMOZ-R (Hunt et al., Med Vet Entomol. 2005 September; 19(3):271-5) are placed onto the treated tile, wood and concrete. The exposition time is 30 minutes.
1 hour, 2 hour, 4 hour, 24 hours after contact to the treated surface, the mortality proportion of the test animals in % is determined. Here, 100% means that all mosquitoes have been killed; 0% means that none of the mosquitoes has been killed. The treated tile, wood and concrete was stored under stress conditions (30° C./80% rh). Measurement with the treated tile, wood and concrete was repeated 5 weeks (Table 1), 11 weeks (Table 2) and 60 weeks (Table 3) after the treatment with the active compound combination.

[1] = 5 weeks after treatment, Concrete, 1 h after contact
[2] = 5 weeks after treatment, Concrete, 2 h after contact
[3] = 5 weeks after treatment, Concrete, 4 h after contact
[4] = 5 weeks after treatment, Concrete, 24 h after contact
[5] = 5 weeks after treatment, Tile, 1 h after contact
[6] = 5 weeks after treatment, Tile, 2 h after contact
[7] = 5 weeks after treatment, Tile, 4 h after contact
[8] = 5 weeks after treatment, Tile, 24 h after contact
[9] = 5 weeks after treatment, Wood, 1 h after contact
[10] = 5 weeks after treatment, Wood, 2 h after contact
[11] = 5 weeks after treatment, Wood, 4 h after contact
[12] = 5 weeks after treatment, Wood, 24 h after contact
[13] = 11 weeks after treatment, Concrete, 1 h after contact
[14] = 11 weeks after treatment, Concrete, 2 h after contact
[15] = 11 weeks after treatment, Concrete, 4 h after contact
[16] = 11 weeks after treatment, Concrete, 24 h after contact
[17] = 11 weeks after treatment, Tile, 1 h after contact
[18] = 11 weeks after treatment, Tile, 2 h after contact
[19] = 11 weeks after treatment, Tile, 4 h after contact
[20] = 11 weeks after treatment, Tile, 24 h after contact
[21] = 11 weeks after treatment, Wood, 1 h after contact
[22] = 11 weeks after treatment, Wood, 2 h after contact
[23] = 11 weeks after treatment, Wood, 4 h after contact
[24] = 11 weeks after treatment, Wood, 24 h after contact
[25] = 60 weeks after treatment, Concrete, 1 h after contact
[26] = 60 weeks after treatment, Concrete, 2 h after contact
[27] = 60 weeks after treatment, Concrete, 4 h after contact
[28] = 60 weeks after treatment, Concrete, 24 h after contact
[29] = 60 weeks after treatment, Tile, 1 h after contact
[30] = 60 weeks after treatment, Tile, 2 h after contact
[31] = 60 weeks after treatment, Tile, 4 h after contact
[32] = 60 weeks after treatment, Tile, 24 h after contact
[33] = 60 weeks after treatment, Wood, 1 h after contact
[34] = 60 weeks after treatment, Wood, 2 h after contact
[35] = 60 weeks after treatment, Wood, 4 h after contact
[36] = 60 weeks after treatment, Wood, 24 h after contact

## CC1(C)[C@H](C(=O)O[C@H](C#N)c2cccc(Oc3ccccc3)c2)[C@@H]1C=C(Br)Br [Deltamethrin, deltamethrin]
[1]
  mortality at 12.5 mg/m2: 70%
  mortality at 25 mg/m2: 90%
[2]
  mortality at 12.5 mg/m2: 87%
  mortality at 25 mg/m2: 100%
[3]
  mortality at 12.5 mg/m2: 100%
  mortality at 25 mg/m2: 100%
[4]
  mortality at 12.5 mg/m2: 30%
  mortality at 25 mg/m2: 73%
[5]
  mortality at 12.5 mg/m2: 17%
  mortality at 25 mg/m2: 7%
[6]
  mortality at 12.5 mg/m2: 77%
  mortality at 25 mg/m2: 83%
[7]
  mortality at 12.5 mg/m2: 97%
  mortality at 25 mg/m2: 100%
[8]
  mortality at 12.5 mg/m2: 100%
  mortality at 25 mg/m2: 93%
[9]
  mortality at 12.5 mg/m2: 10%
  mortality at 25 mg/m2: 30%
[10]
  mortality at 12.5 mg/m2: 77%
  mortality at 25 mg/m2: 90%
[11]
  mortality at 12.5 mg/m2: 80%
  mortality at 25 mg/m2: 93%
[12]
  mortality at 12.5 mg/m2: 77%
  mortality at 25 mg/m2: 83%
[13]
  mortality at 12.5 mg/m2: 3%
  mortality at 25 mg/m2: 13%
[14]
  mortality at 12.5 mg/m2: 0%
  mortality at 25 mg/m2: 43%
[15]
  mortality at 12.5 mg/m2: 17%
  mortality at 25 mg/m2: 63%
[16]
  mortality at 12.5 mg/m2: 30%
  mortality at 25 mg/m2: 73%
[17]
  mortality at 12.5 mg/m2: 0%
  mortality at 25 mg/m2: 10%
[18]
  mortality at 12.5 mg/m2: 0%
  mortality at 25 mg/m2: 33%
[19]
  mortality at 12.5 mg/m2: 0%
  mortality at 25 mg/m2: 43%
[20]
  mortality at 12.5 mg/m2: 3%
  mortality at 25 mg/m2: 63%
[21]
  mortality at 12.5 mg/m2: 0%
  mortality at 25 mg/m2: 0%
[22]
  mortality at 12.5 mg/m2: 0%
  mortality at 25 mg/m2: 27%
[23]
  mortality at 12.5 mg/m2: 20%
  mortality at 25 mg/m2: 80%
[24]
  mortality at 12.5 mg/m2: 13%
  mortality at 25 mg/m2: 70%
[25]
  mortality at 12.5 mg/m2: 0%
  mortality at 25 mg/m2: 0%
[26]
  mortality at 12.5 mg/m2: 0%
  mortality at 25 mg/m2: 0%
[27]
  mortality at 12.5 mg/m2: 0%
  mortality at 25 mg/m2: 0%
[28]
  mortality at 12.5 mg/m2: 13%
  mortality at 25 mg/m2: 23%
[29]
  mortality at 12.5 mg/m2: 0%
  mortality at 25 mg/m2: 0%
[30]
  mortality at 12.5 mg/m2: 0%
  mortality at 25 mg/m2: 7%
[31]
  mortality at 12.5 mg/m2: 17%
  mortality at 25 mg/m2: 23%
[32]
  mortality at 12.5 mg/m2: 30%
  mortality at 25 mg/m2: 53%
[33]
  mortality at 12.5 mg/m2: 0%
  mortality at 25 mg/m2: 0%
[34]
  mortality at 12.5 mg/m2: 0%
  mortality at 25 mg/m2: 10%
[35]
  mortality at 12.5 mg/m2: 17%
  mortality at 25 mg/m2: 37%
[36]
  mortality at 12.5 mg/m2: 43%
  mortality at 25 mg/m2: 43%
